The values below are quoted from earlier work in PubChem BioAssay AID493017 (Abbott Labs, 2003).

The structures appear in SMILES notation.

The target of this data set is Platelet-derived growth factor receptor alpha (Homo sapiens) (UniProt P16234). Description: PubChem AID 493017. The settings on record: WOMBAT literature affinities, multiple human targets; PDGFR; gene PDGFRA; NCBI gene 5156.
Sequence of Platelet-derived growth factor receptor alpha (Homo sapiens) (P16234 whole entry, looked up): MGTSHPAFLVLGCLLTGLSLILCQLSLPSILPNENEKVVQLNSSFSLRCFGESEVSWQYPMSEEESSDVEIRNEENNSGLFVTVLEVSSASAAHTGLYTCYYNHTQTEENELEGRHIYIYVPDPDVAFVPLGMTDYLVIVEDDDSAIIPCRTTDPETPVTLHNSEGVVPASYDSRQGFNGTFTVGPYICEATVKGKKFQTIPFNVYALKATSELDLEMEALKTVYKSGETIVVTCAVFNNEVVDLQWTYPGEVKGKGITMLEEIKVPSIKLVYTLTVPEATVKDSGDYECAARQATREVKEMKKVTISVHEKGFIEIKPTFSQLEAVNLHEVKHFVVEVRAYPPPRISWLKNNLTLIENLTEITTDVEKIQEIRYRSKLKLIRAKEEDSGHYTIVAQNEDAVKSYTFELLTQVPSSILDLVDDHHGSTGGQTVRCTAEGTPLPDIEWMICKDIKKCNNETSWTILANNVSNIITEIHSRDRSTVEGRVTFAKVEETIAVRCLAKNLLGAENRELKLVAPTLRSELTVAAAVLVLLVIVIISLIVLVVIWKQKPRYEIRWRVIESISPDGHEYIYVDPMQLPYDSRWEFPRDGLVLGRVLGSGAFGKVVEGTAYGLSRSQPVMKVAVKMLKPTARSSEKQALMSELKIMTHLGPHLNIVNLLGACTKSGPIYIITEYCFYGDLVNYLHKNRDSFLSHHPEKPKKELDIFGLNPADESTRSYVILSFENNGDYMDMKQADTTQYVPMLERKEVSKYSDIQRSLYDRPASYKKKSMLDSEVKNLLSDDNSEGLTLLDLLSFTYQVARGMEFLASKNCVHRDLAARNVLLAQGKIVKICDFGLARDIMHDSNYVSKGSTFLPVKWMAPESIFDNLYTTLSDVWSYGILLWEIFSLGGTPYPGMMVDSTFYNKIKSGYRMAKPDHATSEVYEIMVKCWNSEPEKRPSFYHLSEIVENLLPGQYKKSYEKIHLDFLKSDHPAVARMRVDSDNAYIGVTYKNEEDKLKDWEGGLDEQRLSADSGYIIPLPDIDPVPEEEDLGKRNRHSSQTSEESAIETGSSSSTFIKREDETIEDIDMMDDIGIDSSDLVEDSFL
On to `COc1cc2nccc(Oc3cccc(OC)c3OC)c2cc1OC`, for which the half-maximal inhibitory concentration (IC50) (commonly the midpoint of a concentration-inhibition curve) is 4.4 µM.

Turning to `CCCCc1ccc(C(=O)c2ccc(Oc3ccnc4cc(OC)c(OC)cc34)cc2)cc1`, the IC50 is 0.15 µM.

As for `COc1cc2nccc(Oc3ccc(NC(=O)c4ccc(C(C)(C)C)cc4)cc3)c2cc1OC`, the IC50 was 0.05 µM.

Regarding `COc1cccc(Oc2ccnc3cc(OC)c(OC)cc23)c1`, the IC50 was 0.44 µM.

In the case of `COc1cc2nccc(Oc3ccccc3C(=O)c3ccccc3)c2cc1OC`, the IC50 was 48 µM.

In the case of `COc1cc2nccc(Oc3ccc(NC(=O)c4ccc(C(C)=O)cc4)cc3)c2cc1OC`, the IC50 is 3.6 µM.

Regarding `COc1cc2nccc(Oc3ccc(C(C)=O)cc3)c2cc1OC`, the IC50 is 15 µM.

Regarding `COc1cc2nccc(Oc3cccc(C)c3)c2cc1OC`, the 50% inhibitory concentration (IC50) is 6.9 µM.

For `COc1cc2nccc(Oc3ccc(C(=O)c4ccccc4C(F)(F)F)cc3)c2cc1OC`, the IC50 was 7.2 µM.

Regarding `COc1cc2nccc(Oc3ccccc3)c2cc1OC`, the IC50 is 0.76 µM.

Consider `COc1cc2nccc(Oc3ccc(N(C)C(=O)c4ccc(C(C)(C)C)cc4)cc3)c2cc1OC`, for which the IC50 is 0.33 µM.

With `COc1cc2nccc(Oc3ccc(C(=O)c4ccc(C)cc4)cc3)c2cc1OC`, the IC50 was 1.7 µM.
